Laboratory results published in ChEMBL document CHEMBL3301361, “Experimental in vitro DMPK and physicochemical data on a set of publicly disclosed compounds”.

Test: physchem
Settings: octan-1-ol/water, pH 7.4
With `CCCC(C)(COC(N)=O)COC(=O)NC(C)C` (stereo not given) [CARISOPRODOL] the logD was 2.01.
`Nc1nc2ccc(Cl)cc2c2nc(-c3ccco3)nn12` [CGS-15943] showed a logD of 3.98.
For `O=C(O)CCCc1ccc(N(CCCl)CCCl)cc1` [CHLORAMBUCIL], the logD was 1.47.
`NC(=NCc1ccc(Cl)cc1)SCCCc1cnc[nH]1` [CLOBENPROPIT] showed a logD of 1.13.
In the case of `COc1cc2c(c(OC)c1OC)-c1ccc(OC)c(=O)cc1[C@@H](NC(C)=O)CC2` [COLCHICINE], the logD is reported as 0.82.
Molecule `Cc1cccc([C@H](C)c2cnc[nH]2)c1C` [DEXMEDETOMIDINE] has a logD of 2.79.
In the case of `CCC1(C)CC(=O)NC1=O` (stereo not given) [ETHOSUXIMIDE], the logD is reported as 0.23.
Work on `CCc1cc2c(s1)-n1c(C)nnc1CN=C2c1ccccc1Cl` [ETIZOLAM] yielded a logD of 2.52.
`C=C1C[C@@H]2[C@H](CC[C@]3(C)C(=O)CC[C@@H]23)[C@@]2(C)C=CC(=O)C=C12` [EXEMESTANE] showed a logD of 2.98.
With `CCN(CC)CCN1C(=O)CN=C(c2ccccc2F)c2cc(Cl)ccc21` [FLURAZEPAM] the logD was 2.38.
`Cc1cc2c(C(C)C)c(O)c(O)c(C=O)c2c(O)c1-c1c(C)cc2c(C(C)C)c(O)c(O)c(C=O)c2c1O` [GOSSYPOL] gave a logD of 2.75.
For `CN1C(=O)NC(=O)C(C)(C2=CCCCC2)C1=O` (stereo not given) [HEXOBARBITAL], the logD was 1.5.
Molecule `CN(C(=O)Cc1ccc(Cl)c(Cl)c1)[C@H](CN1CCCC1)c1ccccc1` [ICI-199,441] has a logD of 3.42.
With `CC(C)[C@@H](CN1CC[C@@](C)(c2cccc(O)c2)[C@@H](C)C1)NC(=O)[C@H]1Cc2ccc(O)cc2CN1` [JDTIC] the logD was 2.39.

Same assay, conditions: octan-1-ol/water, pH 7.4, LogD7.4
With `CCCCCOC(=O)Nc1nc(=O)n([C@@H]2O[C@H](C)[C@@H](O)[C@H]2O)cc1F` [CAPECITABINE] the logD was 0.67.
`O=C1CCCCCN1` [CAPROLACTAM] showed a logD of -0.08.
Work on `CCN(CC)CCOCCOC(=O)C1(c2ccccc2)CCCC1` [CARBETAPENTANE] yielded a logD of 1.33.
`C[C@@](Cc1ccc(O)c(O)c1)(NN)C(=O)O` [CARBIDOPA ANHYDROUS] gave a logD of -0.7.
Work on `O=c1ccoc2ccccc12` [CHROMONE] yielded a logD of 1.4.
Work on `O=c1cc(-c2ccccc2)oc2cc(O)cc(O)c12` [CHRYSIN] yielded a logD of 3.83.
In the case of `O=C(c1ccc(OCCCc2cnc[nH]2)cc1)C1CC1` [CIPROXIFAN], the logD is reported as 2.68.
`CCN(CC)CCCNCc1cc(Cl)c2cccnc2c1O` [CLAMOXYQUIN] showed a logD of 0.72.
`COc1ccccc1CN[C@H]1CCCN[C@H]1c1ccccc1` [CP-99994] showed a logD of 1.5.
In the case of `CC1CC(OC(=O)C(O)c2ccccc2)CC(C)(C)C1` (stereo not given) [CYCLANDELATE], the logD is reported as 2.31.
With `NS(=O)(=O)c1cc2c(cc1Cl)NC(C1CC3C=CC1C3)NS2(=O)=O` (stereo not given) [CYCLOTHIAZIDE] the logD was 2.12.
For `CN1CCC(=C2c3ccccc3C=Cc3ccccc32)CC1` [CYPROHEPTADINE], the logD was 3.06.
With `N[C@H](Cc1c[nH]c2ccccc12)C(=O)O` [D-TRYPTOPHAN] the logD was -0.92.
`NS(=O)(=O)c1cc(Cl)c(Cl)c(S(N)(=O)=O)c1` [DICHLORPHENAMIDE] showed a logD of 0.92.
Work on `CCN(CC)CCOC(=O)C1(C2CCCCC2)CCCCC1` [DICYCLOMINE] yielded a logD of 3.72.
In the case of `CN(C)c1ncnc2nc[nH]c12` [DIMETHYLADENINE], the logD is reported as 0.95.
Work on `NC(Cc1c[nH]c2ccccc12)C(=O)O` (stereo not drawn) [DL-TRYPTOPHAN] yielded a logD of -1.17.
Molecule `CC(=O)O[C@@]12CO[C@@H]1C[C@H](O)[C@@]1(C)C(=O)[C@H](O)C3=C(C)[C@@H](OC(=O)[C@H](O)[C@@H](NC(=O)OC(C)(C)C)c4ccccc4)C[C@@](O)([C@@H](OC(=O)c4ccccc4)[C@H]21)C3(C)C` [DOCETAXEL] has a logD of 3.4.
Molecule `CCCCC(CC)COC(=O)CC(C(=O)OCC(CC)CCCC)S(=O)(=O)O` (stereo not given) [DOCUSATE] has a logD of 2.93.
For `CN(C)CCOC(C)(c1ccccc1)c1ccccn1` (stereo not given) [DOXYLAMINE], the logD was -0.2.
`Cn1c(=O)c2c(ncn2CC(O)CO)n(C)c1=O` (stereo not given) [DYPHYLLINE] gave a logD of -1.25.
`CCN(CC)CCOc1ccc(/C(=C(/Cl)c2ccccc2)c2ccccc2)cc1` [ENCLOMIPHENE] showed a logD of 4.09.
`Nc1ccccc1NC(=O)c1ccc(CNC(=O)OCc2cccnc2)cc1` [ENTINOSTAT] showed a logD of 1.26.
In the case of `CCCCc1ncc(/C=C(\Cc2cccs2)C(=O)O)n1Cc1ccc(C(=O)O)cc1` [EPROSARTAN], the logD is reported as -0.9.
In the case of `NC(=O)N1c2ccccc2C[C@H](O)c2ccccc21` [ESLICARBAZEPINE], the logD is reported as 0.79.
With `C=C(CC)C(=O)c1ccc(OCC(=O)O)c(Cl)c1Cl` [ETHACRYNIC ACID] the logD was 0.02.
For `NC(N)=Nc1nc(CSCCC(N)=NS(N)(=O)=O)cs1` [FAMOTIDINE], the logD was -0.6.
With `O=C(O)Cc1csc(-c2ccc(Cl)cc2)n1` [FENCLOZIC ACID] the logD was -0.22.
`Oc1ccc(C2CNCCc3c2cc(O)c(O)c3Cl)cc1` (stereo not given) [FENOLDOPAM] showed a logD of 0.87.
In the case of `Cc1c(-c2ccccc2)oc2c(C(=O)OCCN3CCCCC3)cccc2c1=O` [FLAVOXATE], the logD is reported as 3.42.
Work on `CC(=O)[C@@]1(O)CC[C@H]2[C@@H]3C[C@H](C)C4=CC(=O)C=C[C@]4(C)[C@@]3(F)[C@@H](O)C[C@@]21C` [FLUOROMETHOLONE] yielded a logD of 2.65.
For `COc1ccc(-c2coc3cc(O)ccc3c2=O)cc1` [FORMONONETIN], the logD was 3.05.
`CCOC(=O)c1ccc(OC(=O)CCCCCNC(=N)N)cc1` [GABEXATE] gave a logD of 2.41.
Molecule `Nc1ccn([C@@H]2O[C@H](CO)[C@@H](O)C2(F)F)c(=O)n1` [GEMCITABINE] has a logD of -1.5.
With `O=c1c(-c2ccc(O)cc2)coc2cc(O)cc(O)c12` [GENISTEIN] the logD was 3.06.
Molecule `O=C(OCC(O)CO)c1ccccc1Nc1ccnc2cc(Cl)ccc12` (stereo not given) [GLAFENINE] has a logD of 3.5.
`COc1ccccc1OCC(O)CO` (stereo not given) [GUAIFENESIN] showed a logD of 0.24.
`COc1ccc(COc2ccc(Cc3cnc(N)nc3N)cc2OC)cc1` [GW632580X] showed a logD of 2.27.
Molecule `CN1CCCN(C(c2ccccc2)c2ccc(Cl)cc2)CC1` (stereo not given) [HOMOCHLORCYCLIZINE] has a logD of 2.36.
`CCN(CCO)CCCC(C)Nc1ccnc2cc(Cl)ccc12` (stereo not given) [HYDROXYCHLOROQUINE] showed a logD of 0.77.
`OCCOCCN1CCN(C(c2ccccc2)c2ccc(Cl)cc2)CC1` (stereo not given) [HYDROXYZINE] showed a logD of 3.08.
`COc1cc(C(=O)NS(=O)(=O)c2ccccc2)ccc1Cn1ncc2ccc(NC(=O)OC3CCCC3)cc21` [ICI-198615] showed a logD of 1.8.
For `Oc1ccc(C2=Cc3ccc(O)cc3OC2)cc1` [IDRONOXIL], the logD was 3.8.
For `Oc1c(I)cc(I)c2cccnc12` [IODOQUINOL], the logD was 2.19.
`CC(C)NC[C@@H](C(=O)N1CCN(c2ncnc3c2[C@H](C)C[C@H]3O)CC1)c1ccc(Cl)cc1` [IPATASERTIB] gave a logD of 1.3.
Molecule `CN(C)CCCn1c2c(c3ccccc31)CCCCCC2` [IPRINDOLE] has a logD of 2.96.
For `CC(C)NNC(=O)c1ccncc1` [IPRONIAZID], the logD was 0.33.
Molecule `NNC(=O)c1ccncc1` [ISONIAZID] has a logD of -0.57.
In the case of `c1ccc2cnccc2c1` [ISOQUINOLINE], the logD is reported as 1.6.
In the case of `O=C(c1ccccc1)c1ccc2n1CCC2C(=O)O` (stereo not given) [KETOROLAC], the logD is reported as -0.93.
With `CCCc1c(OCCCSc2ccc(CC(=O)O)cc2Cl)ccc2c(CC)noc12` [L-165461] the logD was 3.92.
Work on `c1ccc([C@H]2CN3CCSC3=N2)cc1` [LEVAMISOLE] yielded a logD of 0.81.
For `COc1ccc2c(c1)N(C[C@H](C)CN(C)C)c1ccccc1S2` [LEVOMEPROMAZINE], the logD was 2.99.
`CC1(C)Cc2c(-c3ccccc3)c(-c3ccc(Cl)cc3)c(CC(=O)O)n2C1` [LICOFELONE] showed a logD of 3.07.
`O=c1[nH]c2cc(Cl)c(Cl)c([N+](=O)[O-])c2[nH]c1=O` [LICOSTINEL] gave a logD of 0.21.
`CC(Oc1c(Cl)cccc1Cl)C1=NCCN1` (stereo not given) [LOFEXIDINE] showed a logD of 0.48.
